Measurements taken from patent EP0348490B1, “TREATMENT OF TYPE 2 DIABETES MELLITUS” (AMYLIN PHARMACEUTICALS, INC., priority 1988, dated 1995).
Where no end group is shown, it is not given here.

Legend:
soleus muscles strips = conditions: synthetic subpeptides; data not shown
[1] = system: isolated islets of Langerhans; experiment: Glucose-stimulated insulin production by isolated islets of Langerhans; type: cell-based, rats
Experimental: The following experiments illustrate the fact that subpeptides of amylin can act to reduce the amount of insulin produced by isolated islets of Langerhans in response to a standard glucose challenge. […] All experiments were performed by known methods used in experimental practice. See, e.g., Lacey PE, and Kostianovsky M, Method for the isolation of intact islets of Langerhans from the rat pancreas. Diabetes 1967; 16:35-39.
Briefly, rats were killed, and islets of Langerhans were isolated from their pancreases. Experiments were performed either with freshly isolated islets or after overnight incubation of islets (23 h) in standard culture medium and conditions at 37°C. […]
Production of insulin is expressed as µU/islet/h. […] The integrity of the islet response was assessed by comparing the responses after stimulation of different aliquots of islets by two and ten mmol/L glucose, respectively, and the strength of the inhibitory response was judged against that induced by 1 µg/ml (650 nmol/L) somatostatin. […]
The results are shown in TABLE 5 below and all results are expressed as ± standard error of the mean (s.e.m.). The significance of differences between the means of groups is assessed by the t-test. […] In all other experimental conditions, the significance of the inhibitory effect is measured against the effect of 10 mmol/L glucose alone.

## Amylin 8-37 (ATQRLANFLVHSSNNFGAILSSTNVGSNTY; Islet amyloid polypeptide; UniProt P10997 41-70, looked up, fragment) [[5]]
Soleus muscles strips
  activity in inhibiting glycogen synthesis (reducing incorporation of radioactive glucose into glycogen): significant activity was present

## CGRP 27-37: subpeptide 27-37 of calcitonin gene related peptide, believed to affect the amylin receptor as an agonist (FVPTNVGSKAF; ends and bridges not checked; UniProt P06881 109-119, looked up, fragment)
[1]; 10 mmol/L glucose, somatostatin 1 ug/mL (650 nmol/L), varying concentrations of CGRP 27-37
  inhibition of insulin secretion compared with that seen with amylin 27-37: no significant difference
[1]; never reached significance
  trend of inhibition relative to that caused by amylin 27-37: slightly greater
